From BindingDB's records for doi:10.1038/304065a0 (Hoechst Pharmaceutical Research Laboratories, 1983)

molecular target: Histamine H2 receptor (Cavia porcellus, UniProt P47747)
Sequence (P47747 whole entry): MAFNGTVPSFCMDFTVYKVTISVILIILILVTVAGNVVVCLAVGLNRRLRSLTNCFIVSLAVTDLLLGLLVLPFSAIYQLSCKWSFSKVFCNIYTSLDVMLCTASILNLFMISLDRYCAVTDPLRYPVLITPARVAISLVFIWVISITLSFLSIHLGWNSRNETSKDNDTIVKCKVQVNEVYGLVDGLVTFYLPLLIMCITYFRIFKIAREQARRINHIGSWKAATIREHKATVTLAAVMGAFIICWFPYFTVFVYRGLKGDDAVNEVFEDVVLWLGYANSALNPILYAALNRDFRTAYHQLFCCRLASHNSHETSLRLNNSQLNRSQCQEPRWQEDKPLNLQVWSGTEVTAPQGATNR

| SMILES | Ki [nM] |
| --- | --- |
| CN/C([CH-][N+](=O)[O-])=[NH+]\CCSCc1ccc(CN(C)C)o1 | 390 |
| CNC(=S)NCCCc1cnc[nH]1 | > 10000 |
| Cc1nc[nH]c1CCN [2-(5-methyl-1H-imidazol-4-yl)ethan-1-amine] | > 10000 |
| CN(C)CCCSC(=N)N [[3-(carbamimidoylsulfanyl)propyl]dimethylamine] | > 10000 |

The next lines start with the values.

| Ki [nM] | SMILES |
| --- | --- |
| 12 | NC(N)=Nc1nc(CSCCC(N)=NS(N)(=O)=O)cs1 |
| 3000 | CNC(=S)NCCCCc1cnc[nH]1 [1-[4-(1H-imidazol-5-yl)butyl]-3-methylthiourea] |
| 63 | Cc1[nH]cnc1CSCCNC(=N)NCCCc1c[nH]cn1 [2-[3-(1H-imidazol-5-yl)propyl]-1-(2-{[(5-methyl-1H-imidazol-4-yl)methyl]sulfanyl}ethyl)guanidine] |
| 510 | C/N=C(\S)NCCSCc1[nH]cnc1C [CAS_34839-70-8] |
